Data reported in patent publication US20080113042A1, “PHARMACEUTICAL COMPOSITION AND METHOD FOR CANCER TREATMENT BASED ON COMBINATIONAL USE OF CONVENTIONAL ANTICANCER AGENTS AND GERANIUM OIL OR COMPOUNDS THEREOF” (priority 2006, published 2008).
Values after ≈ are worked out from the molar mass of the structure shown.

How the values were obtained:
[1] = test system: MDA-MB-231; assay: In vitro cytotoxicity, MTT assay; type: cell-based; details: Homo sapiens, MDA-MB-231 (breast), 48 hours
[2] = test system: SK-OV-3; assay: In vitro cytotoxicity, MTT assay; type: cell-based; details: Homo sapiens, SK-OV-3 (ovary), 48 hours
[3] = test system: MCF-7; assay: In vitro cytotoxicity, MTT assay; type: cell-based; details: Homo sapiens, MCF7, MCF-7 (breast), 48 hours
[4] = test system: NCI-H1437; assay: In vitro cytotoxicity, MTT assay; type: cell-based; details: Homo sapiens, NCI-H1437 (lung), 48 hours
[5] = test system: A-549; assay: In vitro cytotoxicity, MTT assay; type: cell-based; details: Homo sapiens, A549, A-549 (lung), 48 hours
[6] = test system: NCI-H838; assay: In vitro cytotoxicity, MTT assay; type: cell-based; details: Homo sapiens, NCI-H838 (lung), 48 hours
[7] = test system: subcutaneously implanted solid tumors induced by MDA-MB-231 cells; assay: In vivo antitumor efficacy test, breast tumor-bearing nude mice; details: MDA-MB-231 tumors in nude mice, intraperitoneally twice a week for 28 days; paclitaxel 5 mg/kg alone or paclitaxel 0.2 mg/kg + geraniol 45 mg/kg; p<0.001
Method: The antitumor efficacy of composition comprising paclitaxel and geraniol against the subcutaneously implanted solid tumors induced by MDA-MB-231 cells in nude mice was evaluated. Treatments were initiated when the tumors inoculated in nude mice reached a tumor volume of 50-100 mm^3, and this day was designated as Day 1. Mice were divided into 3 different groups consisting of five mice in each group, and administered intraperitoneally with normal saline (control), paclitaxel (5 mg/kg) in normal saline, or composition comprising paclitaxel (0.2 mg/kg) and geraniol (45 mg/kg) twice a week for 28 days. The size of tumor and change of body weight of each mouse were recorded.
The anticancer efficacy of the paclitaxel-geraniol composition was studied in breast tumor-bearing nude mice. […] In the control, mice were injected with normal saline. In Paclitaxel, mice were injected with paclitaxel (5 mg/kg) in normal saline. In the Paclitaxel-geraniol composition, mice were injected with composition comprising paclitaxel (0.2 mg/kg) and geraniol in normal saline.

Row | SMILES | IC50 [1] [µg/mL] | IC50 [2] [µg/mL] | IC50 [3] [µg/mL] | IC50 [4] [µg/mL] | IC50 [5] [µg/mL] | IC50 [6] [µg/mL] | tumor growth (size of tumor) versus control group [7]
1 | O=c1[nH]cc(F)c(=O)[nH]1 [Composition 5-FU, Fluorouracil] | 328 (≈ 2520 µM) | 66.6 (≈ 512 µM) | 38.7 (≈ 298 µM) | > 100 | 5.9 (≈ 45.4 µM) | 12.1 (≈ 93 µM) | 
2 | CC(=O)O[C@H]1C(=O)[C@@]2(C)[C@H]([C@H](OC(=O)c3ccccc3)[C@]3(O)C[C@H](OC(=O)[C@H](O)[C@@H](NC(=O)c4ccccc4)c4ccccc4)C(C)=C1C3(C)C)[C@]1(OC(C)=O)CO[C@@H]1C[C@@H]2O [Paclitaxel, paclitaxel] | 31.9 (≈ 37.4 µM) | 56.5 (≈ 66.2 µM) | 46 (≈ 53.9 µM) | 36.8 (≈ 43.1 µM) | 20.1 (≈ 23.5 µM) | 30.9 (≈ 36.2 µM) | significantly suppressed the tumor growth in a similar manner
